We go through 29 compounds from patent publication US11702404B2, “GLP-1R modulating compounds” (priority 2019, dated 2023).

Series [1] is described as follows: Microsomal stability, human liver microsomes (predicted hepatic clearance). The conditions noted are these: predicted from in vitro microsomal stability data.
The target of the next series is GLP-1R (Homo sapiens, UniProt P43220). Briefly: GLP-1R activation: cAMP increase in CHO cells stably expressing GLP-1R. In kind it is cell-based.
Where [2] appears, read: cAMP increase, CHO cells stably expressing GLP-1R, 10 point dose response, 30 minutes incubation, read-out: EC50.

Read-outs that look alike come from different tables or passages of the source.

Sequence of GLP-1R (P43220 24-463): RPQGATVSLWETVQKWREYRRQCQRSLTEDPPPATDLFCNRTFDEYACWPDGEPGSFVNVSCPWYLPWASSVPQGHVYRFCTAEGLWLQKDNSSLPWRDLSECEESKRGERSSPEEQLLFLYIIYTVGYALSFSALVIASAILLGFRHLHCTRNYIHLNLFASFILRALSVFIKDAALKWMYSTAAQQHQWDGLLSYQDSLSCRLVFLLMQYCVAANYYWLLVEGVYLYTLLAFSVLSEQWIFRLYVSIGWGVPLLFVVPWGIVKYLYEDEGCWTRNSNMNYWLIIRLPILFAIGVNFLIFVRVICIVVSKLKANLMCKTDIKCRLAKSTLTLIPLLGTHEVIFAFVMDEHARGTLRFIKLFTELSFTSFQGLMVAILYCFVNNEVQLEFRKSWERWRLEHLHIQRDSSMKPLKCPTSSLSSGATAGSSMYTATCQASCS

Take `N#Cc1ccc(COc2cccc(-c3cc(F)c(Cc4nc5cc(F)c(C(=O)O)cc5n4C[C@@H]4CCO4)cc3F)n2)c(F)c1` [Example 219, (S)-2-(4-(6-((4-cyano-2-fluorobenzyl)oxy)pyridin-2-yl)-2,5-difluorobenzyl)-5-fluoro-1-(oxetan-2-ylmethyl)-1H-benzo[d]imidazole-6-carboxylic acid]: the “Predicted Hepatic Clearance (Pred. Cl.)” value in series [1] is 2.83 mL/min/kg. Moreover, the EC50 (in general, the concentration that produces a half-maximal response) at GLP-1R (setting [2]) amounted to 0.69 nM.
For the compound `COCCn1c(Cc2ccc(-c3cc(C(F)(F)F)cc(OCc4ccc(C#N)cc4F)n3)cc2F)nc2ccc(C(=O)O)cc21` [Example 90, 2-(4-(6-((4-cyano-2-fluorobenzyl)oxy)-4-(trifluoromethyl)pyridin-2-yl)-2-fluorobenzyl)-1-(2-methoxyethyl)-1H-benzo[d]imidazole-6-carboxylic acid], the “Predicted Hepatic Clearance (Pred. Cl.)” value in series [1] was 10 mL/min/kg. Also, at GLP-1R (setting [2]), the EC50 worked out at 72.4 nM.
With `COCCn1c(Cc2cc(F)c(-c3cccc(OCc4ccc(C#N)nc4)n3)cc2F)nc2c(F)cc(C(=O)O)cc21` [Example 657], the “Predicted Hepatic Clearance (Pred. Cl.)” value in series [1] is 4 mL/min/kg. Also, the 50% effective concentration (EC50) on GLP-1R (setting [2]) was 5.88 nM.
Consider `N#Cc1ccc(COc2cccc(-c3ccc(Cc4nc5c(F)cc(C(=O)O)cc5n4Cc4ncco4)c(F)c3)n2)c(F)c1` [Example 625], for which the “Predicted Hepatic Clearance (Pred. Cl.)” value in series [1] is 2.67 mL/min/kg. Moreover, the EC50 on GLP-1R (setting [2]) turned out to be 0.63 nM.
For `COCCn1c(Cc2cc(F)c(-c3cccc(OCc4ccc(C(N)=O)nc4)n3)cc2F)nc2c(F)cc(C(=O)O)cc21` [Example 825], the “Predicted Hepatic Clearance (Pred. Cl.)” value in series [1] was 1.83 mL/min/kg. Besides, at GLP-1R (setting [2]), the EC50 worked out at 9.09 nM.
With `CC(=O)N1C[C@@H](F)C[C@@H]1Cn1c(Cc2cc(F)c(-c3cccc(OCc4ccc(C#N)cc4F)n3)cc2F)nc2ccc(C(=O)O)cc21` [Example 690], the “Predicted Hepatic Clearance (Pred. Cl.)” value in series [1] was 6 mL/min/kg. At GLP-1R (read-out: EC50), the EC50 is 3.98 nM.
In the case of `COc1cc(C#N)ccc1COc1cccc(-c2cc(F)c(Cc3nc4ccc(C(=O)O)cc4n3CC3(CC#N)CC3)cc2F)n1` [Example 427, 2-(4-(6-((4-cyano-2-methoxybenzyl)oxy)pyridin-2-yl)-2,5-difluorobenzyl)-1-((1-(cyanomethyl)cyclopropyl)methyl)-1H-benzo[d]imidazole-6-carboxylic acid], the “Predicted Hepatic Clearance (Pred. Cl.)” value in series [1] is under 1.83 mL/min/kg. The EC50 at GLP-1R (setting [2]) stood at 0.06 nM.
Turning to `N#CCC1(Cn2c(Cc3cc(F)c(-c4nc(OCc5ccc(C#N)cc5F)ncc4F)cc3F)nc3ccc(C(=O)O)nc32)CC1` [Example 129, 2-(4-(2-((4-cyano-2-fluorobenzyl)oxy)-5-fluoropyrimidin-4-yl)-2,5-difluorobenzyl)-3-((1-(cyanomethyl)cyclopropyl)methyl)-3H-imidazo[4,5-b]pyridine-5-carboxylic acid], the “Predicted Hepatic Clearance (Pred. Cl.)” value in series [1] is 3.17 mL/min/kg. Moreover, the EC50 on GLP-1R (setting [2]) stood at 0.7 nM.
The like results for `N#Cc1ccc(COc2nc(-c3cc(F)c(Cc4nc5c(F)cc(C(=O)O)cc5n4CC4(CF)CC4)cc3F)ncc2F)c(F)c1` [Example 167, 2-(4-(4-((4-cyano-2-fluorobenzyl)oxy)-5-fluoropyrimidin-2-yl)-2,5-difluorobenzyl)-4-fluoro-1-((1-(fluoromethyl)cyclopropyl)methyl)-1H-benzo[d]imidazole-6-carboxylic acid] were, in that order, 6 mL/min/kg and 0.11 nM.
`N#CCC1(Cn2c(Cc3cc(F)c(-c4ccnc(OCc5ccc(Cl)cc5F)n4)cc3F)nc3ccc(C(=O)O)cc32)CC1` [Example 442, 2-(4-(2-((4-chloro-2-fluorobenzyl)oxy)pyrimidin-4-yl)-2,5-difluorobenzyl)-1-((1-(cyanomethyl)cyclopropyl)methyl)-1H-benzo[d]imidazole-6-carboxylic acid]: the “Predicted Hepatic Clearance (Pred. Cl.)” value in series [1] is 3.67 mL/min/kg. Besides, the EC50 on GLP-1R (setting [2]) was 0.14 nM.
Take `N#Cc1ccc(COc2cccc(-c3ccn(Cc4nc5ccc(C(=O)O)cc5n4C[C@@H]4CCO4)c(=O)c3)n2)c(F)c1` [Example 423, (S)-2-((6-((4-cyano-2-fluorobenzyl)oxy)-2′-oxo-[2,4′-bipyridin]-1′(2′H)-yl)methyl)-1-(oxetan-2-ylmethyl)-1H-benzo[d]imidazole-6-carboxylic acid]: the “Predicted Hepatic Clearance (Pred. Cl.)” value in series [1] was under 1.83 mL/min/kg. For the same compound, the EC50 at GLP-1R (setting [2]) turned out to be 4.12 nM.
As for `N#Cc1ccc(COc2cccc(-c3ccc(Cc4nc5ccc(C(=O)O)cc5n4C4CCC4)c(F)c3)n2)c(F)c1` [Example 223, 2-(4-(6-((4-cyano-2-fluorobenzyl)oxy)pyridin-2-yl)-2-fluorobenzyl)-1-cyclobutyl-1H-benzo[d]imidazole-6-carboxylic acid], the “Predicted Hepatic Clearance (Pred. Cl.)” value in series [1] is 3.5 mL/min/kg. The EC50 at GLP-1R (setting [2]) is 16.4 nM.
Turning to `COCCn1c(Cc2ccc(-c3cccc(OCc4cccc(C(C)(C)C#N)c4)n3)cc2F)nc2ccc(C(=O)O)cc21` [Example 142, 2-(4-(6-((3-(2-cyanopropan-2-yl)benzyl)oxy)pyridin-2-yl)-2-fluorobenzyl)-1-(2-methoxyethyl)-1H-benzo[d]imidazole-6-carboxylic acid], in series [1], the “Predicted Hepatic Clearance (Pred. Cl.)” value is 8.83 mL/min/kg. Also, the EC50 on GLP-1R (setting [2]) was 162 nM.
Consider `N#Cc1ccc(COc2ncc(F)c(-c3ccc(Cc4nc5c(F)cc(C(=O)O)cc5n4C[C@@H]4CCO4)c(F)c3)n2)c(F)c1` [Example 880], for which the “Predicted Hepatic Clearance (Pred. Cl.)” value in series [1] was 7.5 mL/min/kg. Besides, on GLP-1R (setting [2]), the EC50 was 0.26 nM.
The like results for `N#Cc1ccc(COc2ncc(F)c(-c3cc(F)c(Cc4nc5c(F)cc(C(=O)O)cc5n4CC4(CF)CC4)cc3F)n2)c(F)c1` [Example 883] were, in that order, 7.5 mL/min/kg and 0.3 nM.
Consider `COCCn1c(Cc2cc(F)c(-c3cccc(OCc4ccc(C)nc4F)n3)cc2F)nc2ccc(C(=O)O)cc21` [Example 822], for which the “Predicted Hepatic Clearance (Pred. Cl.)” value in series [1] is 1.83 mL/min/kg. At GLP-1R (setting [2]), the EC50 came out at 3.49 nM.
Take `COCCn1c(Cc2ccc(-c3cccc(OCc4ccccc4COC)n3)cc2F)nc2ccc(C(=O)O)cc21` [Example 496, 2-(2-fluoro-4-(6-((2-(methoxymethyl)benzyl)oxy)pyridin-2-yl)benzyl)-1-(2-methoxyethyl)-1H-benzo[d]imidazole-6-carboxylic acid]: in series [1], the “Predicted Hepatic Clearance (Pred. Cl.)” value was 18.2 mL/min/kg. Also, at GLP-1R (setting [2]), the EC50 is 2000 nM.
On to `N#Cc1ccc(COc2cccc(-c3cc(F)c(Cc4nc5ccc(C(=O)O)cc5n4CC45COC(C4)C5)cc3F)n2)c(F)c1` [Example 624], for which, in series [1], the “Predicted Hepatic Clearance (Pred. Cl.)” value was 5 mL/min/kg. Further, the EC50 at GLP-1R (setting [2]) was determined as 1.68 nM.
In the same order, the values of `COCCn1c(Cc2cc(F)c(-c3nc(OCc4ccc(C#N)cc4F)ccc3F)cc2F)nc2c(F)cc(C(=O)O)cc21` [Example 791] are 4.83 mL/min/kg and 2.75 nM.
On to `COCCn1c(Cc2ccc(-c3cccc(OCc4ccc(C#N)cc4F)n3)c(F)c2)nc2c(F)cc(C(=O)O)cc21` [Example 681], for which the “Predicted Hepatic Clearance (Pred. Cl.)” value in series [1] was 3.33 mL/min/kg. Further, the EC50 on GLP-1R (setting [2]) is 5.64 nM.
Take `N#Cc1ccc(COc2cccc(-c3cc(F)c(Cc4nc5ccc(C(=O)O)cc5n4C[C@@H]4CCO4)cc3F)n2)cn1` [Example 807]: the “Predicted Hepatic Clearance (Pred. Cl.)” value in series [1] is 3.33 mL/min/kg. The EC50 on GLP-1R (setting [2]) turned out to be 0.18 nM.
In the case of `COCCn1c(Cc2cc(F)c(-c3cccc(OCc4ccc(C#N)nc4)n3)cc2F)nc2ccc(C(=O)O)cc21` [Example 820], in series [1], the “Predicted Hepatic Clearance (Pred. Cl.)” value was 2.67 mL/min/kg. The EC50 at GLP-1R (EC50 (nM)) was 11.5 nM.
Take `COCCn1c(Cc2cc(F)c(-c3cccc(OCc4ccc(C(C)=O)cc4)n3)cc2F)nc2ccc(C(=O)O)cc21` [Example 875]: the “Predicted Hepatic Clearance (Pred. Cl.)” value in series [1] is 9.33 mL/min/kg. In addition, the EC50 at GLP-1R (setting [2]) is 2.32 nM.
On to `O=C(O)c1ccc2nc(Cc3cc(F)c(-c4ccnc(OCc5ccc(C(F)F)cc5F)n4)cc3F)n(CC34CC(CO3)C4)c2c1` [Example 671], for which the “Predicted Hepatic Clearance (Pred. Cl.)” value in series [1] was 1.83 mL/min/kg. The 50% effective concentration (EC50) at GLP-1R (setting [2]) is 1.76 nM.
The like results for `COC[C@H](CF)n1c(Cc2cc(F)c(-c3cccc(OCc4ccc(C#N)cc4F)n3)cc2F)nc2ccc(C(=O)O)cc21` [Example 727] were, in that order, 5.5 mL/min/kg and 46.3 nM.
For the compound `COCCn1c(Cc2ccc(-c3cccc(OCc4ccc(C#N)cc4F)n3)cc2CF)nc2ccc(C(=O)O)cc21` [Example 410, 2-(4-(6-((4-cyano-2-fluorobenzyl)oxy)pyridin-2-yl)-2-(fluoromethyl)benzyl)-1-(2-methoxyethyl)-1H-benzo[d]imidazole-carboxylic acid], the “Predicted Hepatic Clearance (Pred. Cl.)” value in series [1] was 14.8 mL/min/kg. Further, the EC50 on GLP-1R (setting [2]) turned out to be 20.8 nM.
With `COCCn1c(Cc2ccc(-c3cccc(OCc4ccc(C#N)cc4F)n3)nc2)nc2ccc(C(=O)O)cc21` [Example 43, 2-{[6-[6-[(4-cyano-2-fluoro-phenyl)methoxy]-2-pyridyl]-3-pyridyl]methyl}-3-(2-methoxyethyl)benzimidazole-5-carboxylic acid], the “Predicted Hepatic Clearance (Pred. Cl.)” value in series [1] is 5.83 mL/min/kg. Moreover, the EC50 at GLP-1R (setting [2]) is 163 nM.
For `COCCn1c(Cc2cc(F)c(-c3cccc(OCc4ccc(C(F)(F)F)cc4F)n3)cc2F)nc2ccc(C(=O)O)cc21` [Example 557, 2-(2,5-difluoro-4-(6-((2-fluoro-4-(trifluoromethyl)benzyl)oxy)pyridin-2-yl)benzyl)-1-(2-methoxyethyl)-1H-benzo[d]imidazole-6-carboxylic acid], the “Predicted Hepatic Clearance (Pred. Cl.)” value in series [1] was 2.17 mL/min/kg. In addition, the EC50 on GLP-1R (setting [2]) stood at 0.47 nM.
`COC(=O)N1CCC[C@@H]1Cn1c(Cc2cc(F)c(-c3cccc(OCc4ccc(C#N)cc4F)n3)cc2F)nc2ccc(C(=O)O)cc21` [Example 589, (R)-2-(4-(6-((4-cyano-2-fluorobenzyl)oxy)pyridin-2-yl)-2,5-difluorobenzyl)-1-((1-(methoxycarbonyl)pyrrolidin-2-yl)methyl)-1H-benzo[d]imidazole-6-carboxylic acid]: the “Predicted Hepatic Clearance (Pred. Cl.)” value in series [1] is 8.17 mL/min/kg. The EC50 on GLP-1R (read-out: EC50) is 5.46 nM.
